What all share (assay type): in vivo, New Zealand White rabbits
The subject of experiment [1] is rabbit corneas after 1N NaOH alkali burn injury. As to the kind of experiment: Slit lamp stromal opacity area and intensity (ImageJ) one month after alkali burn. The note with it: topical 0.2 mg/ml losartan and/or 1% prednisolone acetate six times per day. As to the method:
All animal treatments and care were approved by the Institutional Animal Care and Use Committee (IACUC) at the Cleveland Clinic Foundation (Cleveland, OH, USA) and the Animal Care and Use Review Office of the Department of the Army (Fort Detrick, MD). All rabbits were treated in accordance with the tenets of the ARVO Statement for the Use of Animals in Ophthalmic and Vision Research. Sixteen 10- to 15-week-old female New Zealand White rabbits weighing 2.5 to 3.0 kg each were included in this example.
(§1) Alkali injuries were produced in one eye of rabbits with previously published methods^10 using 1N sodium hydroxide (Sigma, St. Louis, MO) in balanced salt solution (BSS, 0.64% sodium chloride, 0.075% potassium chloride, 0.048% calcium chloride dihydrate, 0.03% magnesium chloride hexahydrate, 0.39% sodium acetate trihydrate, 0.17% sodium citrate dihydrate, pH 7.5, Alcon, Ft. Worth, TX) and a 5 mm diameter circular Whatman No. 1 filter paper (Cat #1001-6508, Fisher Scientific) wetted with 100 μl of 1N NaOH solution. Following the alkali burn injury, the cornea was irrigated profusely with BSS. Each injured cornea also received one drop of ciprofloxacin (Alcon, Ft. Worth, TX, USA) ten minutes after surgery and four times a day for one week and at least 15 minutes apart from the study medications.
(§2) Worth TX), at least 5 minutes apart, or 4) 50 μl of BSS.
At one month after sodium hydroxide exposure and treatments, with the rabbits under ketamine-xylazine general anesthesia, the eyes were dilated with two drops of 1% tropicamide (Akom Co., Lake Forest, IL) for thirty minutes. The study eye in each rabbit had slit lamp photographs with standardized illumination level and angle of illumination at 20× magnification with a Topcon (Oakland, NJ, USA) SL-D7 slit lamp photography system. For each study eye, the total area of opacity was determined by outlining the opacity with the freehand selection tool using ImageJ 1.53a analysis software calibrated to mm^2. The “raw internal density” in pixels for the opacified area in each cornea was also determined using ImageJ.

Experiment [2] relates to central corneal neovascularization (CNV). As to the kind of experiment: Corneal angiography for central corneal neovascularization after alkali burn. The note with it: topical six times per day, one month, all four vehicle corneas positive. As to the method:
as §1, §2
All corneas had fluorescent angiography at the peak of dye passage in the cornea immediately after injection of 1.5 ml of 10% sodium fluorescein (McKesson, Irvine, TX) in the central ear vein with the slit lamp system and digital camera system using a “barrier filter” that only transmitted 520-530 nm, the peak of fluorescein emission, with broad illumination of the cornea, as previously described.^11

In another experiment the test system is collagen type IV. Nature of the experiment: IHC collagen type IV intensity in anterior and posterior stroma after alkali burn. The note with it: one month. Here is the method:
Multiplex immunohistochemistry (IHC) was performed using previously described methods^8 and primary antibodies (Table 7) confirmed by western blotting and IHC to recognize rabbit antigens or isotypic control antibodies (Thermo Fisher Scientific, Waltham, MA), and secondary fluorescent tagged antibodies (Table 7). The collagen type IV antibody (Cat. #AB769, Millipore, Temecula CA) was raised against purified human and bovine collagen type IV that had been affinity purified with human and bovine collagen type IV crosslinked to agarose and cross-absorbed by the manufacturer with human and bovine collagens type I, II, III, V and VI to eliminate cross-reactivity. This collagen type IV antibody was shown previously to bind rabbit collagen IV in IHC,^8,9 and recognizes the alpha-1/alpha-2 chains but not the alpha-3 to alpha-6 chains. The keratocan antibody is raised against peptide […]-OH (SEQ ID NO:1). This marker was used to identify keratocytes in situ. […] All corneas in each group had IHC for collagen type IV. Images from each cornea were converted to uniform 300 DPI, 875×568 pixel, files. […] The staining intensity within each box was determined with the analyze histogram function and the mean of three boxes was the intensity value in the anterior or posterior stroma for that cornea.

Each structure is given as a SMILES string.

As for `CC(=O)OCC(=O)[C@@]1(O)CC[C@H]2[C@@H]3CCC4=CC(=O)C=C[C@]4(C)[C@H]3[C@@H](O)C[C@@]21C` [prednisolone acetate], in experiment [1], the “total corneal opacity area measured with ImageJ, vs BSS vehicle” value is “decreased” and the “total opacity in pixels in the opacified area of cornea, vs vehicle BSS group” value was “trended towards decreased total opacity”. The “corneas (of four) that developed central corneal neovascularization” value in experiment [2] was “one”. Besides, in the experiment on collagen type IV, the “mean intensity units of collagen type IV in the anterior stroma vs vehicle” value is recorded as “trend towards a decrease”.

(Values after US20250367170A1, “TOPICAL ANGIOTENSIN II RECEPTOR BLOCKERS (ARBS) FOR TREATING EYE CONDITIONS” (The Cleveland Clinic Foundation, priority 2022, published 2025).)
